Reference: patent publication US20240400564A1 (Syndax Pharmaceuticals, Inc, priority 2021, published 2024)

Molecular target: hERG (Homo sapiens, UniProt Q12809)
Assay: Patch clamp assay (hERG tail currents, whole-cell)
Description: The 35 mm culture dishes upon which cells were seeded at a density allowing single cells to be recorded were placed on the dish holder of the microscope and continuously perfused (at approximately 1 mL/min) with the bath solution described in section 4.6. All solutions applied to cells including the pipette solution were maintained at room temperature (19° C. to 30° C.). After formation of a Gigaohm seal between the patch electrodes and individual hERG stably transfected HEK 293 cells (pipette resistance range: 2.0 MS to 7.0 MS; seal resistance range: >1GΩ) the cell membrane across the pipette tip was ruptured to assure electrical access to the cell interior (whole-cell patch-configuration). In case the quality of the seal was poor, the process of seal formation was repeated with a different cell and a new pipette. As soon as a stable seal could be established, hERG outward tail currents were measured upon depolarization of the cell membrane to +20 mV for 2 s (activation of channels) from a holding potential of −80 mV and upon subsequent repolarization to −40 mV for 3 s. This voltage protocol (as shown below) was run at least 10 times at intervals of 10 s. If current density was judged to be too low for measurement, another cell was recorded.
During wash-in of the test item the voltage protocol indicated above was run continuously again at 10 s intervals until the steady-state level of block was reached.
The IC50 was determined by fitting the dose response curve with a 2-parameter logistic function (amax=100%).

Chain of hERG (Q12809 whole entry): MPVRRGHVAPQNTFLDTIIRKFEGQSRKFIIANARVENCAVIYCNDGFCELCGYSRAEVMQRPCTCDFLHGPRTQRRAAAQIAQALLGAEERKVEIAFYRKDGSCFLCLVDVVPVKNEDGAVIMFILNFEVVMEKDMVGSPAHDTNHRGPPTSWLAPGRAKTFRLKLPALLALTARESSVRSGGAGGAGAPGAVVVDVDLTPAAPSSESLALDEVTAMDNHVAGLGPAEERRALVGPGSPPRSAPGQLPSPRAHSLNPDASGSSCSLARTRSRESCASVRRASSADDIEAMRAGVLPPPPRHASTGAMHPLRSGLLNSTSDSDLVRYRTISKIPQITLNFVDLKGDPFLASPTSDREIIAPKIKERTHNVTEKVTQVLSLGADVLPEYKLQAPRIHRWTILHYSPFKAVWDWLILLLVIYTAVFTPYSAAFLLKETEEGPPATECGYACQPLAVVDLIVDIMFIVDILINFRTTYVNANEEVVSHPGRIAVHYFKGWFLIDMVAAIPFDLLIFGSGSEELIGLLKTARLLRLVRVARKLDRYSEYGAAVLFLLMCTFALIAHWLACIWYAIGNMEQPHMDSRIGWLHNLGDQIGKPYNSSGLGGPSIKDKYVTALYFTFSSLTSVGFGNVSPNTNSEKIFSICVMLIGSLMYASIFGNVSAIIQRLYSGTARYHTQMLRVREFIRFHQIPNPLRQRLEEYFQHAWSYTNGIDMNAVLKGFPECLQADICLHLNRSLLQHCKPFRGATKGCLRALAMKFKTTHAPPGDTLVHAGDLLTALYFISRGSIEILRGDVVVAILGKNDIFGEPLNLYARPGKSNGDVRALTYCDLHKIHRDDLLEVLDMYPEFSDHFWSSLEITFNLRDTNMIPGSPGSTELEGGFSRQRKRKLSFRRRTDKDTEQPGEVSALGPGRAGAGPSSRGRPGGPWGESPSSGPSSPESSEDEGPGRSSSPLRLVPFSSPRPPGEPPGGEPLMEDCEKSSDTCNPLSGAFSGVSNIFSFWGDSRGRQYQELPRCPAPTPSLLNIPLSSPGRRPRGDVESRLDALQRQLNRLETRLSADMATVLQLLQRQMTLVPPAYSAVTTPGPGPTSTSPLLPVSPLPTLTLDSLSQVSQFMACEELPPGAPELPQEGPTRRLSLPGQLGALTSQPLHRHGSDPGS

Structure (SMILES) | hERG % Remaining (30 μM compound) | hERG % Remaining (10 μM compound) | hERG % Remaining (100 μM compound)
C[C@@H]1COC[C@@H](C)N1C(=O)c1cc(F)ccc1Oc1cncnc1N1CC2(CCN(C[C@@H]3CC[C@@H](NS(=O)(=O)N(C)C)CO3)CC2)C1 [Example 123, {[(3R,6S)-6-{[2-(5-{2-[(3R,5R)-3,5-Dimethylmorpholine-4-carbonyl]-4-fluorophenoxy}pyrimidin-4-yl)-2,7-diazaspiro[3.5]nonan-7-yl]methyl}oxan-3-yl]sulfamoyl}dimethylamine] | +++ (≥66%) | – | –
CCNS(=O)(=O)N[C@@H]1CC[C@@H](CN2CCC3(CC2)CN(c2ncncc2Oc2ccc(F)cc2C(=O)N2[C@H](C)COC[C@H]2C)C3)OC1 [Example 125, {[(3R,6S)-6-{[2-(5-{2-[(3R,5R)-3,5-Dimethylmorpholine-4-carbonyl]-4-fluorophenoxy}pyrimidin-4-yl)-2,7-diazaspiro[3.5]nonan-7-yl]methyl}oxan-3-yl]sulfamoyl}(ethyl)amine] | +++ (≥66%) | – | –
C[C@@H]1COC[C@H](C)N1C(=O)c1cc(F)ccc1Oc1cncnc1N1CC2(CCN(C[C@@H]3CC[C@@H](NS(=O)(=O)c4ccccc4)CO3)CC2)C1 [Example 130, N-((3R,6S)-6-((2-(5-(2-((3S,5R)-3,5-Dimethylmorpholine-4-carbonyl)-4-fluorophenoxy)pyrimidin-4-yl)-2,7-diazaspiro[3.5]nonan-7-yl)methyl)tetrahydro-2H-pyran-3-yl)benzenesulfonamide] | ++ (233% and ≤66%) | +++ (≥66%) | –
CC(C)N(C(=O)c1cc(F)ccc1Oc1cncnc1N1CC2(CCN(C[C@@H]3CC[C@@H](NS(=O)(=O)N4CCC4)CO3)CC2)C1)[C@H]1CCOC1 [Example 134, 2-((4-(7-(((2S,5R)-5-(Azetidine-1-sulfonamido)tetrahydro-2H-pyran-2-yl)methyl)-2,7-diazaspiro[3.5]nonan-2-yl)pyrimidin-5-yl)oxy)-5-fluoro-N-isopropyl-N-((S)-tetrahydrofuran-3-yl)benzamide] | +++ (≥66%) | – | –
CC(C)N(CCC#N)C(=O)c1cc(F)ccc1Oc1cncnc1N1CC2(CCN(C[C@@H]3CC[C@@H](NS(=O)(=O)c4ccccc4)CO3)CC2)C1 [Example 136, N-(2-Cyanoethyl)-5-fluoro-N-isopropyl-2-((4-(7-(((2S,5R)-5-(phenylsulfonamido)tetrahydro-2H-pyran-2-yl)methyl)-2,7-diazaspiro[3.5]nonan-2-yl)pyrimidin-5-yl)oxy)benzamide] | + (<33%) | +++ (≥66%) | –
CC(C)N(C)C(=O)c1cc(F)ccc1Oc1cncnc1N1CC2(CCN(C[C@@H]3CC[C@@H](NS(=O)(=O)N4CCC4)CO3)CC2)C1 [Example 138, 2-((4-(7-(((2S,5R)-5-(Azetidine-1-sulfonamido)tetrahydro-2H-pyran-2-yl)methyl)-2,7-diazaspiro[3.5]nonan-2-yl)pyrimidin-5-yl)oxy)-5-fluoro-N-isopropyl-N-methylbenzamide] | +++ (≥66%) | – | –
CCNS(=O)(=O)N[C@@H]1CC[C@@H](CN2CCC3(CC2)CN(c2ncncc2Oc2ccc(F)cc2C(=O)N(CC)C(C)C)C3)OC1 [Example 141, N-Ethyl-2-((4-(7-(((2S,5R)-5-((N-ethylsulfamoyl)amino)tetrahydro-2H-pyran-2-yl)methyl)-2,7-diazaspiro[3.5]nonan-2-yl)pyrimidin-5-yl)oxy)-5-fluoro-N-isopropylbenzamide] | +++ (≥66%) | – | –
CCN(C(=O)c1cc(F)ccc1Oc1cncnc1N1CC2(CCN(C[C@@H]3CC[C@@H](NS(=O)(=O)NC4CC4)CO3)CC2)C1)C(C)C [Example 142, 2-((4-(7-(((2S,5R)-5-((N-Cyclopropylsulfamoyl)amino)tetrahydro-2H-pyran-2-yl)methyl)-2,7-diazaspiro[3.5]nonan-2-yl)pyrimidin-5-yl)oxy)-N-ethyl-5-fluoro-N-isopropylbenzamide] | ++ (233% and ≤66%) | – | –
CNS(=O)(=O)N[C@@H]1CC[C@@H](CN2CCC3(CC2)CN(c2ncncc2Oc2ccc(F)cc2C(=O)N(C(C)C)C(C)C)C3)OC1 [Example 143, 5-Fluoro-N,N-diisopropyl-2-((4-(7-(((2S,5R)-5-((N-methylsulfamoyl)amino)tetrahydro-2H-pyran-2-yl)methyl)-2,7-diazaspiro[3.5]nonan-2-5-yl)pyrimidin-5-yl)oxy)benzamide] | +++ (≥66%) | – | +++ (≥66%)
CCNS(=O)(=O)N[C@@H]1CC[C@@H](CN2CCC3(CC2)CN(c2ncncc2Oc2ccc(F)cc2C(=O)N(C(C)C)C(C)C)C3)OC1 [Example 144, 2-((4-(7-(((2S,5R)-5-((N-Ethylsulfamoyl)amino)tetrahydro-2H-pyran-2-yl)methyl)-2,7-diazaspiro[3.5]nonan-2-yl)pyrimidin-5-yl)oxy)-5-fluoro-N,N-diisopropylbenzamide] | +++ (≥66%) | – | –
CCNS(=O)(=O)N[C@@H]1CC[C@@H](CN2CCC3(CC2)CN(c2ncncc2Oc2ccc(F)cc2C(=O)N(C(C)C)C2CC2)C3)OC1 [Example 145, N-Cyclopropyl-2-((4-(7-(((2S,5R)-5-((N-ethylsulfamoyl)amino)tetrahydro-2H-pyran-2-yl)methyl)-2,7-diazaspiro[3.5]nonan-2-yl)pyrimidin-5-yl)oxy)-5-fluoro-N-isopropylbenzamide] | +++ (≥66%) | – | –
CCNS(=O)(=O)N[C@@H]1CC[C@@H](CN2CCC3(CC2)CN(c2ncncc2Oc2ccc(F)cc2C(=O)N(CC(F)F)C(C)C)C3)OC1 [Example 147, N-(2,2-Difluoroethyl)-2-((4-(7-(((2S,5R)-5-((N-ethylsulfamoyl)amino)tetrahydro-2H-pyran-2-yl)methyl)-2,7-diazaspiro[3.5]nonan-2-yl)pyrimidin-5-yl)oxy)-5-fluoro-N-isopropylbenzamide] | +++ (≥66%) | +++ (≥66%) | –
CC(C)N(CC(F)F)C(=O)c1cc(F)ccc1Oc1cncnc1N1CC2(CCN(C[C@@H]3CC[C@@H](NS(=O)(=O)NCC4CC4)CO3)CC2)C1 [Example 148, 2-((4-(7-(((2S,5R)-5-((N-(Cyclopropylmethyl)sulfamoyl)amino)tetrahydro-2H-pyran-2-yl)methyl)-2,7-diazaspiro[3.5]nonan-2-yl)pyrimidin-5-yl)oxy)-N-(2,2-difluoroethyl)-5-fluoro-N-isopropylbenzamide] | +++ (≥66%) | – | –
CC(C)N(CC(F)F)C(=O)c1cc(F)ccc1Oc1cncnc1N1CC2(CCN(C[C@@H]3CC[C@@H](NS(=O)(=O)NC4CC4)CO3)CC2)C1 [Example 149, 2-((4-(7-(((2S,5R)-5-((N-Cyclopropylsulfamoyl)amino)tetrahydro-2H-pyran-2-yl)methyl)-2,7-diazaspiro[3.5]nonan-2-yl)pyrimidin-5-yl)oxy)-N-(2,2-difluoroethyl)-5-fluoro-N-isopropylbenzamide] | +++ (≥66%) | – | –
CCNS(=O)(=O)N[C@@H]1CC[C@@H](CN2CCC3(CC2)CN(c2ncncc2Oc2ccc(F)cc2C(=O)N(CC(F)(F)F)C(C)C)C3)OC1 [Example 153, 2-((4-(7-(((2S,5R)-5-((N-Ethylsulfamoyl)amino)tetrahydro-2H-pyran-2-yl)methyl)-2,7-diazaspiro[3.5]nonan-2-yl)pyrimidin-5-yl)oxy)-5-fluoro-N-isopropyl-N-(2,2,2-trifluoroethyl)benzamide] | +++ (≥66%) | – | –
